Measurements: patent publication US9375443B2 (Signal Pharmaceuticals, LLC, priority 2012, dated 2016)
Where two headings read alike, the source gives them in different places. One block for each molecule: values may come before it.

What was measured:
[1] = system: panel of NSCLC cell lines; assay: Proliferation Assays, panel of NSCLC cell lines; type: cell-based; settings: various degrees of sensitivity
[2] = system: H2009; assay: Proliferation Assays (NSCLC cell line sensitivity); type: cell-based; settings: KRAS MUT, EGFR WT
[3] = system: H3255; assay: Proliferation Assays (NSCLC cell line sensitivity); type: cell-based; settings: EGFR L858R
[4] = system: HCC95; assay: Proliferation Assays (NSCLC cell line sensitivity); type: cell-based; settings: SQC, KRAS WT, EGFR WT
[5] = system: Calu-3; assay: Proliferation Assays (NSCLC cell line sensitivity); type: cell-based; settings: ACA, KRAS WT, EGFR wt (HER2+)
[6] = system: A549; assay: Proliferation Assays (NSCLC cell line sensitivity); type: cell-based
[7] = system: H460; assay: Proliferation Assays (NSCLC cell line sensitivity); type: cell-based
[8] = system: NCI-H23; assay: Proliferation Assays (NSCLC cell line sensitivity); type: cell-based
[9] = system: HCC15; assay: Proliferation Assays (NSCLC cell line sensitivity); type: cell-based; settings: SQC, KRAS WT, EGFR WT
[10] = system: H2126; assay: Proliferation Assays (NSCLC cell line sensitivity); type: cell-based
[11] = system: H1975; assay: Proliferation Assays (NSCLC cell line sensitivity); type: cell-based; settings: ACA, KRAS WT, EGFR L858R, T790M
[12] = system: H1650; assay: Proliferation Assays (NSCLC cell line sensitivity); type: cell-based; settings: KRAS WT, EGFR E746 A750del (exon19)
[13] = system: H1299; assay: Proliferation Assays (NSCLC cell line sensitivity); type: cell-based; settings: KRAS WT, EGFR WT
[14] = system: H2122; assay: Proliferation Assays (NSCLC cell line sensitivity); type: cell-based; settings: KRAS MUT, EGFR WT
[15] = system: H520; assay: Proliferation Assays (NSCLC cell line sensitivity); type: cell-based; settings: KRAS WT, EGFR WT
[16] = system: H226; assay: Proliferation Assays (NSCLC cell line sensitivity); type: cell-based; settings: KRAS WT, EGFR WT
[17] = system: H157; assay: Proliferation Assays (NSCLC cell line sensitivity); type: cell-based
[18] = system: H441; assay: Proliferation Assays (NSCLC cell line sensitivity); type: cell-based; settings: BAC, KRAS MUT, EGFR WT
[19] = system: H1703; assay: Proliferation Assays (NSCLC cell line sensitivity); type: cell-based; settings: KRAS WT, EGFR WT
[20] = system: H1975 xenografts; assay: H1975 xenograft in nude mice; type: in vivo, athymic nude mice; settings: erlotinib 40 mg/kg 3× per week oral gavage, Compound 1 5 mg/kg/daily oral gavage, day 17 to day 30
Description: (§1) A549 adenocarcinoma or H1975 cells in single cell suspension were implanted into the posterior flanks of athymic nude mice. […] For the A549 xenograft, the treatments were started on Day 26 after implantation and were stopped on day 53, while for the H1975 xenograft, the treatments were started on day 17 after implantation and were stopped on day 30.

[21] = system: A549 xenografts; assay: A549 xenograft in nude mice; type: in vivo, athymic nude mice; settings: erlotinib 40 mg/kg 3× per week oral gavage, Compound 1 5 mg/kg/daily oral gavage, Day 26 to day 53
Description: as §1

IC50 ([2]; ACA): 5.05 µM
IC50 ([3]; ACA): 11.9 µM
IC50 [4]: 0.724 µM
IC50 [5]: 0.184 µM
IC50 ([6]; A549, ACA, KRAS MUT G125, EGFR WT, read-out: IC50): 0.58 µM
IC50 ([7]; H460, LCC, KRAS MUT G61H, EGFR WT, read-out: IC50): 0.153 µM
IC50 ([8]; NCI-H23, ACA, KRAS MUT 12 mutation G12C, read-out: IC50): 3 µM
IC50 [9]: 6.37 µM
IC50 ([10]; H2126, ACA, KRAS WT, EGFR WT, read-out: IC50): 0.214 µM
IC50 [11]: 0.25 µM
IC50 ([12]; ACA): 5.2 µM
IC50 ([13]; Large Cell Neuroendocrin): 3.09 µM
IC50 ([14]; ACA): 1.59 µM
IC50 ([15]; SQC): 0.374 µM
IC50 ([16]; SQC): 1.98 µM
IC50 ([17]; H157, SQC, KRAS MUT, EGFR WT): 2.61 µM
IC50 ([18]; ACA): 0.392 µM
IC50 ([19]; SCC): 1.64 µM
Structure (SMILES): CO[C@H]1CC[C@H](N2C(=O)CNc3ncc(-c4ccc(C(C)(C)O)nc4)nc32)CC1 [Compound 1, 7-(6-(2-hydroxypropan-2-yl)pyridin-3-yl)-1-((1r,4r)-4-methoxycyclohexyl)-3,4-dihydropyrazino-[2,3-b]pyrazin-2(1H)-one]
anti-proliferative activity [1]: demonstrated anti-proliferative activity

IC50 ([2]; Homo sapiens, NCI-H2009, ACA): 15.3 µM
IC50 ([3]; Homo sapiens, NCI-H3255, ACA): 0.205 µM
IC50 ([4]; Homo sapiens): 6.45 µM
IC50 ([5]; Homo sapiens): 7.09 µM
IC50 ([6]; Homo sapiens, A549, read-out: IC50 (value in parentheses beside > 10 μM)): 25.2 µM
IC50 ([6]; Homo sapiens, A549, ACA, KRAS MUT G125, EGFR WT, read-out: IC50): > 10 µM
IC50 ([7]; Homo sapiens, NCI-H460, read-out: IC50 (value in parentheses beside > 10 μM)): 18 µM
IC50 ([7]; Homo sapiens, NCI-H460, H460, LCC, KRAS MUT G61H, EGFR WT, read-out: IC50): > 10 µM
IC50 ([8]; Homo sapiens, NCI-H23, read-out: IC50 (value in parentheses beside > 10 μM)): 22.8 µM
IC50 ([8]; Homo sapiens, NCI-H23, ACA, KRAS MUT 12 mutation G12C, read-out: IC50): > 10 µM
IC50 [9]: > 10 µM
IC50 ([10]; Homo sapiens, NCI-H2126, read-out: IC50 (value in parentheses beside > 10 μM)): 19.8 µM
IC50 ([10]; Homo sapiens, NCI-H2126, H2126, ACA, KRAS WT, EGFR WT, read-out: IC50): > 10 µM
IC50 ([12]; Homo sapiens, NCI-H1650, ACA): 2.84 µM
IC50 ([13]; Homo sapiens, NCI-H1299, Large Cell Neuroendocrin): > 10 µM
IC50 ([14]; Homo sapiens, NCI-H2122, ACA): > 10 µM
IC50 ([15]; Homo sapiens, NCI-H520, SQC): > 10 µM
IC50 ([16]; Homo sapiens, NCI-H226, SQC): > 10 µM
IC50 ([17]; Homo sapiens, NCI-H157): > 10 µM
IC50 ([18]; Homo sapiens, NCI-H441, ACA): > 10 µM
IC50 ([19]; Homo sapiens, NCI-H1703, SCC): > 10 µM
Structure (SMILES): C#Cc1cccc(Nc2ncnc3cc(OCCOC)c(OCCOC)cc23)c1 [Erlotinib, erlotinib]
anti-proliferative activity [1]: demonstrated anti-proliferative activity
tumor growth during treatment [20]: moderately sensitive
tumor growth during treatment [21]: resistant
